# Molecular target: T1, HCV polymerase (Hepatitis C virus genotype 1b, UniProt P26663)
# T1 construct: 2.5 pmoles (0.15 μg) HCV polymerase protein in a final volume of 75 μL
# Assay: HCV polymerase primer/template-directed transcription assay (32P-GTP incorporation, filter binding)
# Format: biochemical
# Settings: @ 50 uM compound; given where IC50 was impractical to calculate; read-out: percent inhibition
# Protocol: The compounds described herein were tested for activity with HCV polymerase. Recombinant HCV polymerase was tested for its ability to perform primer/template-directed transcription in assays that contained 30 mM tris-HCl pH 7.2, 10 mM MgCl2, 20 mM NaCl, 1 mM Dithiothreitol (DTT), 0.05% Tween-20, 1% glycerol, 5 pmoles biotin-dG12 (primer), 0.5 pmoles poly(rC)300 (template), 1 μM GTP, 0.1-0.3 uCi α-^32P-GTP, and 2.5 pmoles (0.15 μg) HCV polymerase protein in a final volume of 75 μL. Reactions were initiated by addition of enzyme and incubated 30 minutes at 30° C. Reactions were stopped by addition of 33 mM EDTA, and polynucleotide products were collected by filtration through Diethylaminoethyl (DE) Filtermat papers (Wallac). Unincorporated triphosphate was removed by washing the filters with 5% dibasic sodium phosphate. The filters were counted in a Packard Tri-Lux Microbeta scintillation counter (Packard Bioscience, Meriden, Conn.). Compounds to be tested were added at various concentrations, e.g., 1 μm to 50 μm, from stocks in 10% DMSO-water (final DMSO is 1% in reaction).
# IC50 values were estimated from the primary cpm data (collected in triplicate) using the formula: cpm (I)=cpm(no inhibitor)(1−([I]/([I]+IC50))). An IC50 value represents the concentration (in μM) of a compound that provides 50% inhibition of polymerase-directed transcription in the above assay. A percent inhibition value is expressed for a compound where it was impractical to calculate an IC50 value with available data. If the IC50 estimated by the above equation was less than 200 nM, it was recalculated using the following equation, which takes into account the enzyme concentration (30 nM) in the assay: cpm(I)=cpm(no inhibitor)(1−((((I+IC50+30e−9)−sqrt(((I+IC50+30e−9)^2)−4×30e−9×I)))/((2)(30e−9))). Curve fitting was performed using the program KaleidaGraph (Synergy Software, Reading, Pa.).
# T1 sequence (P26663 2420-3010): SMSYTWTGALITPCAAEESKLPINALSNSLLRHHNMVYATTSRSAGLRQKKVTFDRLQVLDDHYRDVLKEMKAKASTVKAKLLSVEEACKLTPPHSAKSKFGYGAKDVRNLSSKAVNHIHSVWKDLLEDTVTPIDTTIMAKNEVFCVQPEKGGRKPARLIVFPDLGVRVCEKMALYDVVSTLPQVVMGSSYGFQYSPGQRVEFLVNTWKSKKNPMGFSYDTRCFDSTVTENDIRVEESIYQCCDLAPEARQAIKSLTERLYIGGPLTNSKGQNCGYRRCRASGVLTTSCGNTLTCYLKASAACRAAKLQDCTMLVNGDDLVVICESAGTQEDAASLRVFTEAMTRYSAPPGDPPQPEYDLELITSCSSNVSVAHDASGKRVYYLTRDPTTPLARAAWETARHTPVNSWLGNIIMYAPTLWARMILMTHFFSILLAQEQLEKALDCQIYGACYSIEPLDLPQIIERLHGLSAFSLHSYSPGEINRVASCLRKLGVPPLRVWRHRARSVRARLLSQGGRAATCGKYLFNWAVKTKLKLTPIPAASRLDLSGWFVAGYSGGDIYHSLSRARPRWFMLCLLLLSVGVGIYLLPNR
row,SMILES,inhibition at 50 µM [%]
1,"O=C1CC(=O)OC(CCN2CCCC2=O)(C2CCCC2)C1 (stereo not drawn) [A(14), 6-Cyclopentyl-6-[2-(2-oxo-pyrrolidin-1-yl)-ethyl]-dihydro-pyran-2,4-dione]",35

# Same assay, conditions: recombinant HCV polymerase; 30 minutes at 30° C.; concentration giving 50% inhibition of polymerase-directed transcription; read-out: IC50
row,SMILES,IC50 [µM]
1,"CCC(C#N)(CC)c1ccc(CCC2(C3CCCC3)CC(O)=C(Cc3nc4ncc(Cl)cn4n3)C(=O)O2)cc1F (single isomer, unassigned; (-)) [A(267), (−)-2-(4-{2-[5-(6-Chloro-[1,2,4]triazolo[1,5-a]pyrimidin-2-ylmethyl)-2-cyclopentyl-4-hydroxy-6-oxo-3,6-dihydro-2H-pyran-2-yl]-ethyl}-2-fluoro-phenyl)-2-ethyl-butyronitrile]",0.004
2,"CCc1ccc(O)c(CCC2(C3CCCC3)CC(O)=C(Cc3nc4nc(C)cc(C)n4n3)C(=O)O2)c1 (single isomer, unassigned; enantiomer 1) [A(167), Enantiomer 1 of 6-Cyclopentyl-3-(5,7-dimethyl-[1,2,4]triazolo[1,5-a]pyrimidin-2-ylmethyl)-6-[2-(5-ethyl-2-hydroxy-phenyl)-ethyl]-4-hydroxy-5,6-dihydro-pyran-2-one]",0.004
3,"CCc1ccc(O)c(CCC2(C3CCCC3)CC(O)=C(Cc3nc4ncc(Cl)cn4n3)C(=O)O2)c1 (single isomer, unassigned; enantiomer 1) [A(171), Enantiomer 1 of 3-(6-Chloro-[1,2,4]triazolo[1,5-a]pyrimidin-2-ylmethyl)-6-cyclopentyl-6-[2-(5-ethyl-2-hydroxy-phenyl)-ethyl]-4-hydroxy-5,6-dihydro-pyran-2-one]",0.004
4,"CCc1ccc(O)c(CCC2(C3CCCC3)CC(O)=C(Cc3nc4ncc(C)cn4n3)C(=O)O2)c1 (single isomer, unassigned; enantiomer 1) [A(174), Enantiomer 1 of 6-Cyclopentyl-6-[2-(5-ethyl-2-hydroxy-phenyl)-ethyl]-4-hydroxy-3-(6-methyl-[1,2,4]triazolo[1,5-a]pyrimidin-2-ylmethyl)-5,6-dihydro-pyran-2-one]",0.006
5,"CCc1ccc(O)c(CCC2(C3CCCC3)CC(O)=C(Cc3nc4nc(C)cc(C)n4n3)C(=O)O2)c1 (single isomer, unassigned; enantiomer 2) [A(168), Enantiomer 2 of 6-Cyclopentyl-3-(5,7-dimethyl-[1,2,4]triazolo[1,5-a]pyrimidin-2-ylmethyl)-6-[2-(5-ethyl-2-hydroxy-phenyl)-ethyl]-4-hydroxy-5,6-dihydro-pyran-2-one]",0.009
6,"CCc1ccc(O)c(CCC2(C3CCCC3)CC(O)=C(Cc3nc4ncc(Cl)cn4n3)C(=O)O2)c1 (single isomer, unassigned; enantiomer 2) [A(172), Enantiomer 2 of 3-(6-Chloro-[1,2,4]triazolo[1,5-a]pyrimidin-2-ylmethyl)-6-cyclopentyl-6-[2-(5-ethyl-2-hydroxy-phenyl)-ethyl]-4-hydroxy-5,6-dihydro-pyran-2-one]",0.006
7,"CCc1ccc(O)c(CCC2(C3CCCC3)CC(O)=C(Cc3nc4ncc(C)cn4n3)C(=O)O2)c1 (single isomer, unassigned; enantiomer 2) [A(175), Enantiomer 2 of 6-Cyclopentyl-6-[2-(5-ethyl-2-hydroxy-phenyl)-ethyl]-4-hydroxy-3-(6-methyl-[1,2,4]triazolo[1,5-a]pyrimidin-2-ylmethyl)-5,6-dihydro-pyran-2-one]",0.009
8,"Cc1cc(C)n2nc(CC3=C(O)CC(CCc4ccc(C(C)(C)O)c(F)c4)(C4CCCC4)OC3=O)nc2n1 (single isomer, unassigned; enantiomer a) [A(218), 6-cyclopentyl-3-[(5,7-dimethyl[1,2,4]triazolo[1,5-a]pyrimidin-2-yl)methyl]-6-{2-[3-fluoro-4-(1-hydroxy-1-methylethyl)phenyl]ethyl}-4-hydroxy-5,6-dihydro-2H-pyran-2-one (enantiomer A)]",0.061
9,"Cc1cc(C)n2nc(CC3=C(O)CC(CCc4ccc(C(C)(C)O)c(F)c4)(C4CCCC4)OC3=O)nc2n1 (single isomer, unassigned; enantiomer b) [A(219), 6-cyclopentyl-3-[(5,7-dimethyl[1,2,4]triazolo[1,5-a]pyrimidin-2-yl)methyl]-6-{2-[3-fluoro-4-(1-hydroxy-1-methylethyl)phenyl]ethyl}-4-hydroxy-5,6-dihydro-2H-pyran-2-one (enantiomer B)]",0.088
10,"Cc1cc(C)n2nc(CC3=C(O)CC(CCc4ccc([C@@H](C)O)c(F)c4)(C4CCCC4)OC3=O)nc2n1 (stereo in doubt) [B(114), 6-Cyclopentyl-3-(5,7-dimethyl-[1,2,4]triazolo[1,5-a]pyrimidin-2-ylmethyl)-6-{2-[3-fluoro-4-(1-hydroxy-ethyl)-phenyl]-ethyl}-4-hydroxy-5,6-dihydro-pyran-2-one]",0.016
11,"C[C@@H](O)c1ccc(CCC2(C3CCCC3)CC(O)=C(Cc3nc4ncc(Cl)cn4n3)C(=O)O2)cc1F (stereo in doubt) [B(116), 3-(6-Chloro-[1,2,4]triazolo[1,5-a]pyrimidin-2-ylmethyl)-6-cyclopentyl-6-{2-[3-fluoro-4-(1-hydroxy-ethyl)-phenyl]-ethyl}-4-hydroxy-5,6-dihydro-pyran-2-one]",0.011
12,"COc1ccc(CCC2(C3CCCC3)CC(O)=C(Cc3nc4nc(C)cc(C)n4n3)C(=O)O2)cc1[C@@H](C)O (stereo in doubt) [B(120), 6-Cyclopentyl-3-(5,7-dimethyl-[1,2,4]triazolo[1,5-a]pyrimidin-2-ylmethyl)-4-hydroxy-6-{2-[3-(1-hydroxy-ethyl)-4-methoxy-phenyl]-ethyl}-5,6-dihydro-pyran-2-one]",0.012
13,"CCn1cc(CCC2(C3CCCC3)CC(=O)CC(=O)O2)ccc1=O (stereo not drawn) [A(01), 6-Cyclopentyl-6-[2-(1-ethyl-6-oxo-1,6-dihydro-pyridin-3-yl)-ethyl]-dihydro-pyran-2,4-dione]",38.3
14,"CC(C)(C)c1cc(CCC2(C3CCCC3)CC(=O)CC(=O)O2)ccc1O (stereo not drawn) [A(02), 6-[2-(3-tert-Butyl-4-hydroxy-phenyl)-ethyl]-6-cyclopentyl-dihydro-pyran-2,4-dione]",2.4
15,"CCOc1ccc(CCC2(C3CCCC3)CC(=O)CC(=O)O2)cc1C (stereo not drawn) [A(03), 6-Cyclopentyl-6-[2-(4-ethoxy-3-methyl-phenyl)-ethyl]-dihydro-pyran-2,4-dione]",4.3
16,"Cc1cc(CCC2(C3CCCC3)CC(=O)CC(=O)O2)ccc1OC(C)C (stereo not drawn) [A(04), 6-Cyclopentyl-6-[2-(4-isopropoxy-3-methyl-phenyl)-ethyl]-dihydro-pyran-2,4-dione]",5.6
17,"O=C1CC(=O)OC(CCc2ccc(OCC(F)(F)F)c(Cl)c2)(C2CCCC2)C1 (stereo not drawn) [A(05), 6-{2-[3-Chloro-4-(2,2,2-trifluoro-ethoxy)-phenyl]-ethyl}-6-cyclopentyl-dihydro-pyran-2,4-dione]",5.1
18,"COc1ccc(SCC2(C3CCCC3)CC(=O)CC(=O)O2)cc1 (stereo not drawn) [A(06), 6-Cyclopentyl-6-(4-methoxy-phenylsulfanylmethyl)-dihydro-pyran-2,4-dione]",23.5
19,"CC(=O)Nc1ccc(CCC2(C3CCCC3)CC(=O)CC(=O)O2)cc1F (stereo not drawn) [A(07), N-{4-[2-(2-Cyclopentyl-4,6-dioxo-tetrahydro-pyran-2-yl)-ethyl]-2-fluoro-phenyl}-acetamide]",13.4
20,"COCc1ccc(CCC2(C3CCCC3)CC(=O)CC(=O)O2)cc1F (stereo not drawn) [A(08), 6-Cyclopentyl-6-[2-(3-fluoro-4-methoxymethyl-phenyl)-ethyl]-dihydro-pyran-2,4-dione]",6
21,"O=C1CC(=O)OC(CCc2ccc(-c3ccccc3)c(F)c2)(C2CCCC2)C1 (stereo not drawn) [A(09), 6-Cyclopentyl-6-[2-(2-fluoro-biphenyl-4-yl)-ethyl]-dihydro-pyran-2,4-dione]",5.5
22,"O=C1CC(=O)OC(CCc2ccc(-c3cc4ccccc4s3)c(F)c2)(C2CCCC2)C1 (stereo not drawn) [A(10), 6-[2-(4-Benzo[b]thiophen-2-yl-3-fluoro-phenyl)-ethyl]-6-cyclopentyl-dihydro-pyran-2,4-dione]",8.1
23,"CNC(=O)c1ccc(CCC2(C3CCCC3)CC(=O)CC(=O)O2)cc1F (stereo not drawn) [A(11), 4-[2-(2-Cyclopentyl-4,6-dioxo-tetrahydro-pyran-2-yl)-ethyl]-2-fluoro-N-methyl-benzamide]",16.7
24,"Cc1ccc(-c2ccc(CCC3(C4CCCC4)CC(=O)CC(=O)O3)cc2F)s1 (stereo not drawn) [A(12), 6-Cyclopentyl-6-{2-[3-fluoro-4-(5-methyl-thiophen-2-yl)-phenyl]-ethyl}-dihydro-pyran-2,4-dione]",18.3
25,"O=C1CC(=O)OC(CCC2=CCCCC2)(C2CCCC2)C1 (stereo not drawn) [A(13), 6-(2-Cyclohex-1-enyl-ethyl)-6-cyclopentyl-dihydro-pyran-2,4-dione]",63
26,"Cc1nc(-c2ccc(CCC3(C4CCCC4)CC(=O)CC(=O)O3)cc2F)no1 (stereo not drawn) [A(15), 6-Cyclopentyl-6-{2-[3-fluoro-4-(5-methyl-[1,2,4]oxadiazol-3-yl)-phenyl]-ethyl}-dihydro-pyran-2,4-dione]",4.4
